The values below are quoted from earlier work in US12194111B2, “Alpha emitter compositions and methods” (Nant Holdings IP, LLC, priority 2018, dated 2025).

The data set deals with relapsed or refractory soft tissue sarcoma. The settings on record: clinical trial; treatment of relapsed or refractory soft tissue sarcoma.

For `COc1cccc2c1C(=O)c1c(O)c3c(c(O)c1C2=O)C[C@@](O)(/C(CO)=N/NC(=O)CCCCCN1C(=O)C=CC1=O)C[C@@H]3O[C@H]1C[C@H](N)[C@H](O)[C@H](C)O1` [aldoxorubicin], the progression free disease entry is “did not show a significant increase in progression free disease”.
